From patent publication US5747523A, “Substituted ethyl α,α-diarylmethyl ether derivatives” (Guilford Pharmaceuticals Inc., priority 1996, dated 1998)

How the values were obtained:
[1] = molecular target: T1, cocaine binding site of the human dopamine transporter (Homo sapiens, UniProt Q01959); assay: [3H]CFT binding (cocaine analogue displacement at the cocaine site of DAT); settings: hDAT CHO cells; 5 nM [3H]CFT; 2 h pre-incubation at 37° C., 6 min at room temperature
T1 construct: expressed in transfected cells

[2] = molecular target: T2, human dopamine transporter (Homo sapiens, UniProt Q01959); assay: [3H]dopamine uptake inhibition in hDAT cells; type: cell-based; settings: hDAT CHO cells; 100 nM [3H]dopamine; 2 h pre-incubation at 37° C., 6 min at room temperature; read-out: Effect on Dopamine Uptake (Kiuptake)
T2 construct: expressed in transfected cells

[3] = molecular target: T2, human dopamine transporter; assay: uptake to binding ratio (Kiuptake/Kibinding); settings: hdat cho cells
Protocol: The experimental procedures for the assay of compounds are as follows.
All assays were performed using Chinese Hamster Ovary cells stably expressing the human dopamine transporter cDNA (HDAT cells). hDAT cells were distributed in 96-well plates and grown 3 to 4 days to confluency (~10^5 cells/well) in Ham's F12 medium containing 10% fetal calf serum.

MPTP induced toxicity = settings: mice; literature; cited from earlier work
[4] = tested on: mesolimbic dopamine neurons; settings: rat; literature; cited from earlier work

T2 sequence (Q01959 whole entry): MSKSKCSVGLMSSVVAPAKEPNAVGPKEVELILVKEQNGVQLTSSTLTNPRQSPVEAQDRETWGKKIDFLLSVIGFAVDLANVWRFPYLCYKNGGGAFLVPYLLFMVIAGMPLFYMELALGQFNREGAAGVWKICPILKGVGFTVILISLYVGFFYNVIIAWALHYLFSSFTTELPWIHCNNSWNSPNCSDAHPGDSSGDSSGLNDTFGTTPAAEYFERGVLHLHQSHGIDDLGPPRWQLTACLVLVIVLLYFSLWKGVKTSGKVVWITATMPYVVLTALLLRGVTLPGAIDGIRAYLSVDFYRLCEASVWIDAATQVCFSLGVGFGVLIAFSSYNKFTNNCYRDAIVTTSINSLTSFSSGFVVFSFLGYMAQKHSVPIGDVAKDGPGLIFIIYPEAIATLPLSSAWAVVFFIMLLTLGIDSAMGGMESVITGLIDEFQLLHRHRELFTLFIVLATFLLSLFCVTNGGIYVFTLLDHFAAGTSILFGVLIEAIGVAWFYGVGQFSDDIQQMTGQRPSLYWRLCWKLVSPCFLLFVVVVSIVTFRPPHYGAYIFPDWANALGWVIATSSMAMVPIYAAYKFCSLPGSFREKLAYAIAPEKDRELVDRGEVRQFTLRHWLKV
T1 sequence (Q01959 whole entry): as above

Structure (SMILES) | Ki [1] | Ki [2] | Uptake to Binding Ratio (Kiuptake/Kibinding) [3] | preventing MPTP induced toxicity (MPTP induced toxicity) | attenuation of cocaine-induced activation of mesolimbic dopamine neurons [4]
Fc1ccc(C(OCCN2CCCCC2)c2ccc(F)cc2)cc1 [1-[2-[Bis(4-fluorophenyl)methoxy]ethyl]piperidine] | 0.211 µM | 0.609 µM | 2.896 | – | –
Fc1ccc(C(OCCN2CCCC2)c2ccc(F)cc2)cc1 [1-[2-[Bis(4-fluorophenyl)methoxy]ethyl]pyrrolidine] | 0.361 µM | 0.947 µM | 2.623 | – | –
CS(=O)(=O)O.CS(=O)(=O)O.Fc1ccc(CCCN2CCN(CCOC(c3ccc(F)cc3)c3ccc(F)cc3)CC2)cc1 [GBR 13,098] | – | – | – | effective at preventing MPTP induced toxicity | –
Fc1ccc(C(OCCN2CCN(CCCc3ccccc3)CC2)c2ccc(F)cc2)cc1 [GBR 12909] | – | – | – | – | attenuate cocaine-induced activation of mesolimbic dopamine neurons
